Some results are limits rather than exact numbers.

This assay deals with CCRF-CEM cancer cells - leukaemia. As to the kind of experiment: Fluorometric Microculture Cytotoxicity Assay (FMCA), CCRF-CEM. Format: cell-based. The following applies: Homo sapiens, 72 h incubation. An excerpt:
The Fluorometric Microculture Cytotoxicity Assay, FMCA, is a three day non-clonogenic microplate-based cell viability assay used for measurement of the cytotoxic and/or cytostatic effect of compounds in vitro (Lindhagen, E., et al. Nat Protoc, 2008. 3(8): p. 1364-9). FMCA (Larsson, R. and P. Nygren, Anticancer Res, 1989. 9(4): p. 1111-9) represents a valuable method to measure cytotoxicity in a number of cell types, both cell lines and primary cells from patients (Larsson, R., et al., Int J Cancer, 1992. 50(2): p. 177-85; Fridborg, H., et al., Eur J Cancer, 1999. 35(3): p. 424-32; Dhar, S., et al., Br J Cancer, 1996. 74(6): p. 888-96).
FMCA is based on the principle that fluorescein diacetate (FDA) is converted to the fluorescent probe fluorescein by esterases in the plasma membranes of living cells. For experiments, 96 or 384-well microplates are prepared with compounds and stored at −70° C. until use. Cells are then seeded into the drug-prepared plates and placed in an incubator for 72 h. On the last day of incubation, the plates are washed and a buffer containing FDA is added and incubated with the cells for 45 minutes. Finally the fluorescence per well is measured in a fluorometer and a Survival Index % (SI) for each compound-treated well is calculated with the equation: Compound-treated cells minus blank divided by control cells minus blank. A high SI-value indicates a large percentage of living cells and vice versa.
In subsequent experiments, compounds were tested, along with kinase inhibitors (dasatinib, pazopanib, sorafenib, and sunitinib) as described above. Initially, the acute lymphoblastic leukaemia cell line CCRF-CEM (see e.g. Foley G E, et al. Cancer 1965, 18, 522-529) was used throughout. In the assay plates, medium was added to six empty wells (blank wells) and wells were filled with PBS and cell suspension and served as control wells. SI-values were then calculated for each compound-treated well as described above. All experiments were conducted twice and a new batch of plates was prepared for each experiment.
For dose-response experiments, 384-well plates were prepared as follows:
Compounds of the invention as well as kinase inhibitors sorafenib, sunitinib, dasatinib, and pazopanib (reference compounds) were diluted with PBS to a concentration which was ten-times higher than the desired starting concentration. Then, a Biomek 2000 liquid handling system was employed to serially dilute the compounds in a deep-well 384-well plate. From this plate, assay plates containing 5 μl compound per well were prepared with the Biomek 2000. Certain compounds precipitated when diluted with PBS, and these compounds were therefore prepared in a 96-well plate manually as described above using culture medium RPMI 1640 instead of PBS.
The compounds were also tested at five concentrations, with five times serial dilution on the following cell types: CCRF-CEM, hTERT-RPE1 (normal retinal epithelial cells), hRPTEpiC (normal renal cells) and PBMC (peripheral blood mononuclear cells). Each experiment was performed three times, except for PBMC and hRPTEpiC, which were performed twice. SI-values were calculated, graphs were plotted using GraphPadPrism 5.0 (GraphPad Software Inc. La Jolla, Calif.) and EC50-values for each cell type and compound were determined from the curves.
The term EC50 denotes the concentration that produces a half-maximal response. The low end stands for higher potency in that assay, the high end for lower potency in that assay. In turn, `c1cc(NCc2ccc3[nH]ccc3c2)nc(Nc2ccc3[nH]ccc3c2)n1` [Example 2, N^4-(1H-indol-5-ylmethyl)-N^2-(1H-indol-5-yl)pyrimidine-2,4-diamine] yielded an EC50 of 4.83 µM.
Compound `Cc1cc2cc(Nc3nccc(NCc4ccc5[nH]ccc5c4)n3)ccc2[nH]1` [Example 3, N^4-(1H-indol-5-ylmethyl)-N^2-(2-methyl-1H-indol-5-yl)pyrimidine-2,4-diamine] displayed an EC50 of 4.25 µM.
The compound `c1cc(NCc2ccc3[nH]ccc3c2)nc(Nc2ccc3[nH]ncc3c2)n1` [Example 4, N^4-(1H-indol-5-ylmethyl)-N^2-(1H-indazol-5-yl)pyrimidine-2,4-diamine] yielded an EC50 of 4.07 µM.
In turn, `c1ccc2c(CCNc3nccc(NCc4ccc5[nH]ccc5c4)n3)c[nH]c2c1` [Example 9, N^2-[2-(1H-indol-3-yl)ethyl]-N^4-(1H-indol-5-ylmethyl)pyrimidine-2,4-diamine] returned an EC50 of 8.73 µM.
The compound `Oc1ccc2[nH]cc(CCNc3nccc(NCc4ccc5[nH]ccc5c4)n3)c2c1` [Example 10, 3-{2-[4-(1H-indol-5-ylmethylamino)-pyrimidin-2-ylamino]ethyl}-1H-indol-5-ol] returned an EC50 of 10.2 µM.
`Cc1ccc2[nH]cc(CCNc3nccc(NCc4ccc5[nH]ccc5c4)n3)c2c1` [Example 11, N^4-(1H-indol-5-ylmethyl)-N^2-[2-(5-methyl-1H-indol-3-yl)ethyl]pyrimidine-2,4-diamine] registered an EC50 of 2.88 µM. Compared with the last compound, the EC50 is about 3.5-fold lower.
Under `Cc1cc2cc(CNc3ccnc(Nc4cccc5[nH]ccc45)n3)ccc2[nH]1` [Example 13, N^2-(1H-indol-4-yl)-N^4-(2-methyl-1H-indol-5-ylmethyl)pyrimidine-2,4-diamine] stands 0.55 µM; under `Cc1cc2cc(CNc3ccnc(NCCc4c[nH]c5ccccc45)n3)ccc2[nH]1` [Example 17, N^2-(2-(1H-indol-3-yl)-ethyl)-N^4-(2-methyl-1H-indol-5-ylmethyl)pyrimidine-2,4-diamine], 7.28 µM.
As for `c1cc(Nc2nccc(NCc3ccc4[nH]ncc4c3)n2)c2cc[nH]c2c1` [Example 18, N^2-(1H-indol-4-yl)-N^4-(1H-indazol-5-ylmethyl)pyrimidine-2,4-diamine], the EC50 worked out at 0.71 µM. This EC50 lies about 10-fold lower than the previous one.
Regarding `c1cc(Nc2nccc(NCc3ccc4cc[nH]c4c3)n2)c2cc[nH]c2c1` [Example 20, N^4-(1H-indol-6-ylmethyl)-N^2-(1H-indol-4-yl)pyrimidine-2,4-diamine], the EC50 is 1.01 µM.
`c1cc(Nc2ccnc(NCc3ccc4[nH]ccc4c3)n2)c2cc[nH]c2c1` [Example 23, N^2-(1H-indol-5-ylmethyl)-N^4-(1H-indol-4-yl)pyrimidine-2,4-diamine] returned an EC50 of 1.62 µM.
`c1ccc2c(CCNc3ccnc(NCc4ccc5[nH]ccc5c4)n3)c[nH]c2c1` [Example 25, N^4-[2-(1H-indol-3-yl)ethyl]-N^2-(1H-indol-5-ylmethyl)pyrimidine-2,4-diamine] had an EC50 of 3.16 µM. This EC50 lies about 2-fold higher than the previous one.
In turn, `Oc1ccc2[nH]cc(CCNc3ccnc(NCc4ccc5[nH]ccc5c4)n3)c2c1` [Example 26, 3-{2-[2-(1H-indol-5-ylmethylamino)-pyrimidin-4-ylamino]ethyl}-1H-indol-5-ol] had an EC50 of 7.01 µM. Against the preceding compound, the EC50 is about 2.2-fold higher.
Under `Cc1ccc2[nH]cc(CCNc3ccnc(NCc4ccc5[nH]ccc5c4)n3)c2c1` [Example 27, N^2-(1H-indol-5-ylmethyl)-N^4-[2-(5-methyl-1H-indol-3-yl)ethyl]pyrimidine-2,4-diamine] stands 4.17 µM; under `COc1ccc2[nH]cc(CCNc3ccnc(NCc4ccc5[nH]ccc5c4)n3)c2c1` [Example 28, N^2-(1H-indol-5-ylmethyl)-N^4-[2-(5-methoxy-1H-indol-3-yl)ethyl]pyrimidine-2,4-diamine], 3.1 µM; under `c1cc(Nc2ccnc(NCc3ccc4[nH]ncc4c3)n2)c2cc[nH]c2c1` [Example 29, N^2-(1H-indazol-5-ylmethyl)-N^4-(1H-indol-4-yl)pyrimidine-2,4-diamine], 2.78 µM.
With `Cc1cc(NCc2ccc3[nH]ccc3c2)nc(NCCc2c[nH]c3ccc(O)cc23)n1` [Example 32, 3-{2-[4-(1H-indol-5-ylmethylamino)-6-methyl-pyrimidin-2-ylamino]-ethyl}-1H-indol-5-ol], the EC50 was found to be 7.81 µM. Compared with the last compound, the EC50 is about 2.8-fold higher.
The figure for `Cc1cc2cc(Nc3nc(NCc4ccc5[nH]ccc5c4)cc(C(F)(F)F)n3)ccc2[nH]1` [Example 33, N^4-(1H-indol-5-ylmethyl)-N^2-(2-methyl-1H-indol-5-yl)-6-trifluoromethylpyrimidine-2,4-diamine] is 9.55 µM; for `FC(F)(F)c1cc(NCc2ccc3[nH]ccc3c2)nc(NCCc2c[nH]c3ccccc23)n1` [Example 35, N^2-(2-(1H-indol-3-yl)ethyl)-N^4-(1H-indol-5-ylmethyl)-6-trifluoromethylpyrimidine-2,4-diamine] it is 10.1 µM; for `Nc1cnc(Nc2cccc3[nH]ccc23)nc1NCc1ccc2[nH]ccc2c1` [Example 38, N^4-(1H-indol-5-ylmethyl)-N^2-(1H-indol-4-yl)pyrimidine-2,4,5-triamine] it is 4.33 µM.
The compound `Nc1cnc(Nc2ccc3[nH]ccc3c2)nc1NCc1ccc2[nH]ccc2c1` [Example 39, N^4-(1H-indol-5-ylmethyl)-N^2-(1H-indol-5-yl)pyrimidine-2,4,5-triamine] returned an EC50 of 2.84 µM.
The figure for `Nc1cnc(Nc2ccc3cc[nH]c3c2)nc1NCc1ccc2[nH]ccc2c1` [Example 40, N^4-(1H-indol-5-ylmethyl)-N^2-(1H-indol-6-yl)pyrimidine-2,4,5-triamine] is 4.17 µM; for `Cc1cc2cc(CNc3nccc(Nc4ccc5[nH]c(C)cc5c4)n3)ccc2[nH]1` [Example 63, N^4-(2-methyl-1H-indol-5-yl)-N^2-(2-methyl-1H-indol-5-ylmethyl)pyrimidine-2,4-diamine] it is 0.59 µM.
The figure for `Cc1cc2cc(Nc3ccnc(NCc4ccc5[nH]ncc5c4)n3)ccc2[nH]1` [Example 65, N^2-(1H-indazol-5-ylmethyl)-N^4-(2-methyl-1H-indol-5-yl)pyrimidine-2,4-diamine] is 0.92 µM; for `COc1ccc2[nH]cc(CCNc3nccc(NCc4ccc5[nH]cnc5c4)n3)c2c1` [Example 69, N^4-(1H-benzo[d]imidazol-5-ylmethyl)-N^2-[2-(5-methoxy-1H-indol-3-yl)ethyl]pyrimidine-2,4-diamine] it is below 10 µM; for `Cc1cc2cc(Nc3ccnc(NCc4ccc5cc[nH]c5c4)n3)ccc2[nH]1` [Example 70, N^2-(1H-indol-6-ylmethyl)-N^4-(2-methyl-1H-indol-5-yl)pyrimidine-2,4-diamine] it is below 10 µM.
Consider `COc1ccc2[nH]cc(CCNc3nccc(NCc4ccc5cc[nH]c5c4)n3)c2c1` [Example 71, N^4-(1H-indol-6-ylmethyl)-N^2-[2-(5-methoxy-1H-indol-3-yl)ethyl]pyrimidine-2,4-diamine], for which the EC50 was below 10 µM.
For `c1ccc(COc2ccc3[nH]cc(CCNc4nccc(NCc5ccc6[nH]ccc6c5)n4)c3c2)cc1` [Example 72, N^4-(1H-indol-5-ylmethyl)-N^2-{2-[5-(benzyloxy)-1H-indol-3-yl]ethyl}pyrimidine-2,4-diamine], the EC50 is below 10 µM.
The figure for `c1cc(NCc2ccc3[nH]ccc3c2)nc(NCCc2c[nH]c3ccc(OCCN4CCOCC4)cc23)n1` [Example 73, N^4-(1H-indol-5-ylmethyl)-N^2-{2-[5-(2-morpholinoethoxy)-1H-indol-3-yl]ethyl}pyrimidine-2,4-diamine] is below 10 µM.
In turn, `COCCOc1ccc2[nH]cc(CCNc3nccc(NCc4ccc5[nH]ccc5c4)n3)c2c1` [Example 74, N^4-(1H-indol-5-ylmethyl)-N^2-{2-[5-(2-methoxyethoxy)-1H-indol-3-yl]ethyl}pyrimidine-2,4-diamine] gave an EC50 below 10 µM.
In turn, `Cn1ccc2c(Nc3nccc(NCc4ccc5[nH]ccc5c4)n3)cccc21` [Example 75, N^4-(1H-indol-5-ylmethyl)-N^2-(1-methyl-1H-indol-4-yl)pyrimidine-2,4-diamine] returned an EC50 of 0.61 µM.
Compound `COC(=O)c1cc(Nc2nccc(NCc3ccc4[nH]ccc4c3)n2)c2cc[nH]c2c1` [Example 81, Methyl 4-[4-(1H-indol-5-ylmethylamino)pyrimidin-2-ylamino]-1H-indole-6-carboxylate] registered a concentration giving a half-maximal response (EC50) below 10 µM.

The values are drawn from patent US8927547B2, “Pyrimidine derivatives” (Noviga Research AB, priority 2010, dated 2015).
